Laboratory results published in patent publication US9833497B2, “Human originated EGF domain proteins and use of the same” (CHENGDU SOURCEBIO LIMITED-LIABILITY COMPANY, priority 2013, dated 2017).

Experiments:
Assay type in all cases: cell-based
Serratia marcescens = test: MIC against Gram-negative bacteria: Serratia marcescens
Outline: (§1)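 First, colonies from LB agar were grown in LB at 37° C, 185 rpm, to McFarland turbidity 0.5, then centrifuged and resuspended in fresh LB. Next, wells received 5×10^5 CFU/mL bacteria plus two-fold serially diluted EGF domain protein (triplicate). Finally, plates were shaken at 37° C and the no-growth concentration taken as MIC.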

Aeromonas hydrophila = test: MIC against Gram-negative bacteria: Aeromonas hydrophila
Outline: as §1

Citrobacter diversus = test: MIC against Gram-negative bacteria: Citrobacter diversus
Outline: as §1

Proteus vulgaris = test: MIC against Gram-negative bacteria: Proteus vulgaris
Outline: as §1

E. coli DH5α = test: Antibacterial activity: MIC and growth curve against E. coli DH5α in 96-well plate; settings: minimal inhibitory concentration against E. coli DH5α; 96-well plate, 5×10^5 CFU/mL, 37° C., judged after 8 h
Outline: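 MIC taken as lowest protein level with no bacterial growth, tracked by A600 every 30 min during 37 °C, 175 rpm culture. Two-fold protein series 50-12.5 μg/mL final, triplicate wells, against 5×10^5 CFU/mL of LB-washed mid-log cells.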

Pseudomonas aeruginosa = test: MIC against Gram-negative bacteria: Pseudomonas aeruginosa
Outline: as §1

E. coli BL21 = test: MIC against Gram-negative bacteria: E. coli BL21
Outline: as §1

Moraxella catarrhalis = test: MIC against Gram-negative bacteria: Moraxella catarrhalis
Outline: as §1

Enterobacter cloacae = test: MIC against Gram-negative bacteria: Enterobacter cloacae
Outline: as §1

Proteus mirabilis = test: MIC against Gram-negative bacteria: Proteus mirabilis
Outline: as §1

Klebsiella pneumonia = test: MIC against Gram-negative bacteria: Klebsiella pneumonia
Outline: as §1

[1] = 96-well plate, 5×10^5 CFU/mL, 37° C., 10 h

PRT704 (LLSNCQQLNCQYKCTMVRNSTRCYCEDGFEITEDGRSCK; listed as Homo sapiens)
50 µg/mL: MIC A. hydrophila (Aeromonas hydrophila; [1]) | MIC (E. coli DH5α) | MIC P. aeruginosa (Pseudomonas aeruginosa; [1]) | MIC E. cloacae (Enterobacter cloacae; [1]) | MIC P. mirabilis (Proteus mirabilis; [1])
12.5 µg/mL: MIC S. marcescens (Serratia marcescens; [1]) | MIC M. catarrhalis (Moraxella catarrhalis; [1])
25 µg/mL: MIC C. diversus (Citrobacter diversus; [1]) | MIC P. vulgaris (Proteus vulgaris; [1]) | MIC E. coli BL21 (E. coli BL21; [1]) | MIC K. pneumonia (Klebsiella pneumonia; [1])

PRT691 (DINECDEAEAASPLCVNARCLNTDGSFRCICRPGFAPTHQPHHCA; listed as Homo sapiens)
50 µg/mL: MIC C. diversus (Citrobacter diversus; [1]) | MIC P. vulgaris (Proteus vulgaris; [1]) | MIC E. coli BL21 (E. coli BL21; [1]) | MIC K. pneumonia (Klebsiella pneumonia; [1])
12.5 µg/mL: MIC S. marcescens (Serratia marcescens; [1]) | MIC A. hydrophila (Aeromonas hydrophila; [1]) | MIC P. aeruginosa (Pseudomonas aeruginosa; [1]) | MIC M. catarrhalis (Moraxella catarrhalis; [1])
25 µg/mL: MIC (E. coli DH5α) | MIC E. cloacae (Enterobacter cloacae; [1]) | MIC P. mirabilis (Proteus mirabilis; [1])

PRT461 (DVDECAWDAHLCREGQRCVNLLGSYRCLPDCGPGFRVADGAGCE; listed as Homo sapiens)
12.5 µg/mL: MIC against S. marcescens (Serratia marcescens; [1]) | MIC against A. hydrophila (Aeromonas hydrophila; [1]) | MIC against E. coli BL21 (E. coli BL21; [1]) | MIC against P. mirabilis (Proteus mirabilis; [1]) | MIC against K. pneumonia (Klebsiella pneumonia; [1])
50 µg/mL: MIC against C. diversus (Citrobacter diversus; [1]) | MIC (E. coli DH5α) | MIC against P. aeruginosa (Pseudomonas aeruginosa; [1]) | MIC against E. cloacae (Enterobacter cloacae; [1])
25 µg/mL: MIC against P. vulgaris (Proteus vulgaris; [1]) | MIC against M. catarrhalis (Moraxella catarrhalis; [1])

PRT134 (IKDRCLPNYCEHGGSCSQSWTTFYCNCSDTSYTGATCH; listed as Homo sapiens)
100 µg/mL: MIC (μg/mL) P. mirabilis (Proteus mirabilis; Proteus mirabilis, 96-well plate, 5×10^5 CFU/mL, 37° C., 10 h)
25 µg/mL: MIC (μg/mL) A. hydrophila (Aeromonas hydrophila; Aeromonas hydrophila, 96-well plate, 5×10^5 CFU/mL, 37° C., 10 h) | MIC (μg/mL) C. diversus (Citrobacter diversus; Citrobacter diversus, 96-well plate, 5×10^5 CFU/mL, 37° C., 10 h) | MIC (μg/mL) P. vulgaris (Proteus vulgaris; Proteus vulgaris, 96-well plate, 5×10^5 CFU/mL, 37° C., 10 h) | MIC (μg/mL) K. pneumonia (Klebsiella pneumonia; Klebsiella pneumonia, 96-well plate, 5×10^5 CFU/mL, 37° C., 10 h)
12.5 µg/mL: MIC (μg/mL) S. marcescens (Serratia marcescens; Serratia marcescens, 96-well plate, 5×10^5 CFU/mL, 37° C., 10 h) | MIC (E. coli DH5α) | MIC (μg/mL) P. aeruginosa (Pseudomonas aeruginosa; Pseudomonas aeruginosa, 96-well plate, 5×10^5 CFU/mL, 37° C., 10 h) | MIC (μg/mL) E. coli BL21 (E. coli BL21; E. coli BL21, 96-well plate, 5×10^5 CFU/mL, 37° C., 10 h) | MIC (μg/mL) M. catarrhalis (Moraxella catarrhalis; Moraxella catarrhalis, 96-well plate, 5×10^5 CFU/mL, 37° C., 10 h) | MIC (μg/mL) E. cloacae (Enterobacter cloacae; Enterobacter cloacae, 96-well plate, 5×10^5 CFU/mL, 37° C., 10 h)

PRT904 (NTPDCTESSCFNGGTCVDGINSFTCLCPPGFTGSYCQ; listed as Homo sapiens)
25 µg/mL: MIC (Serratia marcescens; S. marcescens, 10 h cultivation at 37° C.) | MIC (Aeromonas hydrophila; A. hydrophila, 10 h cultivation at 37° C.) | MIC (Proteus vulgaris; P. vulgaris, 10 h cultivation at 37° C.) | MIC (Pseudomonas aeruginosa; P. aeruginosa, 10 h cultivation at 37° C.) | MIC (Moraxella catarrhalis; M. catarrhalis, 10 h cultivation at 37° C.)
12.5 µg/mL: MIC (Citrobacter diversus; C. diversus, 10 h cultivation at 37° C.) | MIC (E. coli BL21; E. coli BL21, 10 h cultivation at 37° C.) | MIC (Enterobacter cloacae; E. cloacae, 10 h cultivation at 37° C.) | MIC (Proteus mirabilis; P. mirabilis, 10 h cultivation at 37° C.) | MIC (Klebsiella pneumonia; K. pneumonia, 10 h cultivation at 37° C.)
50 µg/mL: MIC (E. coli DH5α)

PRT1424 (CQMFCNQTACPADCDPNTQASCECPEGYILDDGFICT; listed as Homo sapiens)
50 µg/mL: MIC (E. coli DH5α) | MIC against P. aeruginosa (Pseudomonas aeruginosa; Pseudomonas aeruginosa, 5×10^5 CFU/mL, 10 h cultivation at 37° C.) | MIC against M. catarrhalis (Moraxella catarrhalis; Moraxella catarrhalis, 5×10^5 CFU/mL, 10 h cultivation at 37° C.) | MIC against E. cloacae (Enterobacter cloacae; Enterobacter cloacae, 5×10^5 CFU/mL, 10 h cultivation at 37° C.)
25 µg/mL: MIC against S. marcescens (Serratia marcescens; Serratia marcescens, 5×10^5 CFU/mL, 10 h cultivation at 37° C.) | MIC against C. diversus (Citrobacter diversus; Citrobacter diversus, 5×10^5 CFU/mL, 10 h cultivation at 37° C.) | MIC against P. mirabilis (Proteus mirabilis; Proteus mirabilis, 5×10^5 CFU/mL, 10 h cultivation at 37° C.)
12.5 µg/mL: MIC against A. hydrophila (Aeromonas hydrophila; Aeromonas hydrophila, 5×10^5 CFU/mL, 10 h cultivation at 37° C.) | MIC against P. vulgaris (Proteus vulgaris; Proteus vulgaris, 5×10^5 CFU/mL, 10 h cultivation at 37° C.) | MIC against E. coli BL21 (E. coli BL21; E. coli BL21, 5×10^5 CFU/mL, 10 h cultivation at 37° C.) | MIC against K. pneumonia (Klebsiella pneumonia; Klebsiella pneumonia, 5×10^5 CFU/mL, 10 h cultivation at 37° C.)
